In ChEMBL document CHEMBL5726876, “NHE3-binding compounds and methods for inhibiting phosphate transport” (2019):

Experiment: Cell-based activity under Prompt Conditions: Cell-based activity under Prompt Conditions. Rat or human NHE3-mediated Na+-dependent H+ antiport was measured using a modification of the pH sensitive dye method originally reported by Paradiso (PNAS USA. 81:7436-7440, 1984). Opossum kidney (OK) cells were obtained from the ATCC and propagated per their instructions. The rat NHE3 gene (GenBank M85300) or the human NHE3 gene (GenBank NM_004174.1) was introduced into OK cells via electroporation, and cells were seeded into 96 well plates and grown overnight. Medium was aspirated from the wells, cells were washed twice with NaCl-HEPES buffer (100 mM NaCl, 50 mM HEPES, 10 mM glucose, 5 mM KCl, 2 mM CaCl2, 1 mM MgCl2, pH 7.4), then incubated for 30 min at room temperature with NH4Cl-HEPES buffer (20 mM NH4Cl, 80 mM NaCl, 50 mM HEPES, 5 mM KCl, 2 mM CaCl2, 1 mM MgCl2, pH 7.4) containing 5 μM bis(acetoxymethyl) 3,3′-(3′,6′-bis(acetoxymethoxy)-5-((acetoxymethoxy)carbonyl)-3-oxo-3H-spiro[isobenzofuran-1,9′-xanthene]-2′,7′-diyl)dipropanoate (BCECF-AM).Cells were washed twice with Ammonium free, Na+-free HEPES (100 mM choline, 50 mM HEPES, 10 mM glucose, 5 mM KCl, 2 mM CaCl2, 1 mM MgCl2, pH 7.4) and incubated in the same buffer for 10 minutes at room temperature to lower intracellular pH. […] Initial rates were plotted as the average 2 or more replicates, and pIC50 values were estimated using GraphPad Prism.

| SMILES | IC50 [nM] |
| --- | --- |
| CN(CC(=O)O)CC(=O)NC(CCC(=O)NCCOCCOCCNS(=O)(=O)c1cccc([C@@H]2CN(C)Cc3c(Cl)cc(Cl)cc32)c1)(CCC(=O)NCCOCCOCCNS(=O)(=O)c1cccc([C@@H]2CN(C)Cc3c(Cl)cc(Cl)cc32)c1)CCC(=O)NCCOCCOCCNS(=O)(=O)c1cccc([C@@H]2CN(C)Cc3c(Cl)cc(Cl)cc32)c1 | 50.1 |
| CN(C)[C@H]1Cc2c(Cl)cc(Cl)cc2[C@@H]1Oc1ccc(S(=O)(=O)NCCOCCOCCNC(=O)NCCCCNC(=O)NCCOCCOCCNS(=O)(=O)c2ccc(O[C@H]3c4cc(Cl)cc(Cl)c4C[C@@H]3N(C)C)cc2)cc1 | 6.31 |
| CN1Cc2c(Cl)cc(Cl)cc2[C@H](c2cccc(S(=O)(=O)NCCOCCOCCNC(=O)CCC(CCC(=O)NCCOCCOCCNS(=O)(=O)c3cccc([C@@H]4CN(C)Cc5c(Cl)cc(Cl)cc54)c3)(CCC(=O)NCCOCCOCCNS(=O)(=O)c3cccc([C@@H]4CN(C)Cc5c(Cl)cc(Cl)cc54)c3)NC(=O)NC[C@H](O)[C@@H](O)[C@H](O)[C@H](O)CO)c2)C1 | 56.2 |
| CNC(=O)NC(CCC(=O)NCCOCCOCCNS(=O)(=O)c1cccc([C@@H]2CN(C)Cc3c(Cl)cc(Cl)cc32)c1)(CCC(=O)NCCOCCOCCNS(=O)(=O)c1cccc([C@@H]2CN(C)Cc3c(Cl)cc(Cl)cc32)c1)CCC(=O)NCCOCCOCCNS(=O)(=O)c1cccc([C@@H]2CN(C)Cc3c(Cl)cc(Cl)cc32)c1 | 794 |
| CN1Cc2c(Cl)cc(Cl)cc2[C@H](c2cccc(S(=O)(=O)NCCOCCOCCNC(=O)CCC(CCC(=O)NCCOCCOCCNS(=O)(=O)c3cccc([C@@H]4CN(C)Cc5c(Cl)cc(Cl)cc54)c3)(CCC(=O)NCCOCCOCCNS(=O)(=O)c3cccc([C@@H]4CN(C)Cc5c(Cl)cc(Cl)cc54)c3)NC(=O)N(C)C[C@H](O)[C@@H](O)[C@H](O)[C@H](O)CO)c2)C1 | 7.94 |
| CN1Cc2c(Cl)cc(Cl)cc2[C@H](c2cccc(S(=O)(=O)NCCOCCOCCNC(=O)CCC(CCC(=O)NCCOCCOCCNS(=O)(=O)c3cccc([C@@H]4CN(C)Cc5c(Cl)cc(Cl)cc54)c3)(CCC(=O)NCCOCCOCCNS(=O)(=O)c3cccc([C@@H]4CN(C)Cc5c(Cl)cc(Cl)cc54)c3)NS(C)(=O)=O)c2)C1 | 631 |
| CN1Cc2c(Cl)cc(Cl)cc2[C@H](c2cccc(S(=O)(=O)NCCOCCOCCNC(=O)CCC(CCC(=O)NCCOCCOCCNS(=O)(=O)c3cccc([C@@H]4CN(C)Cc5c(Cl)cc(Cl)cc54)c3)(CCC(=O)NCCOCCOCCNS(=O)(=O)c3cccc([C@@H]4CN(C)Cc5c(Cl)cc(Cl)cc54)c3)NC(=O)CCC(=O)O)c2)C1 | 31.6 |
| CN1Cc2c(Cl)cc(Cl)cc2[C@H](c2cccc(S(=O)(=O)N(C)CCOCCOCCNC(=O)CCN(CCC(=O)NCCOCCOCCN(C)S(=O)(=O)c3cccc([C@@H]4CN(C)Cc5c(Cl)cc(Cl)cc54)c3)CCC(=O)NCCOCCOCCN(C)S(=O)(=O)c3cccc([C@@H]4CN(C)Cc5c(Cl)cc(Cl)cc54)c3)c2)C1 | 316 |
| CN1Cc2c(Cl)cc(Cl)cc2[C@H](c2cccc(S(=O)(=O)NCCOCCOCCNC(=O)CCC(CCC(=O)NCCOCCOCCNS(=O)(=O)c3cccc([C@@H]4CN(C)Cc5c(Cl)cc(Cl)cc54)c3)(CCC(=O)NCCOCCOCCNS(=O)(=O)c3cccc([C@@H]4CN(C)Cc5c(Cl)cc(Cl)cc54)c3)NC(N)=O)c2)C1 | 316 |
| O=C(NCCCCNC(=O)NCCOCCOCCNS(=O)(=O)c1ccc(O[C@H]2c3cc(F)ccc3C[C@@H]2N2CCCCC2)cc1)NCCOCCOCCNS(=O)(=O)c1ccc(O[C@H]2c3cc(F)ccc3C[C@@H]2N2CCCCC2)cc1 | 1.26 |
| CN1Cc2c(Cl)cc(Cl)cc2[C@H](c2cccc(S(=O)(=O)NCCOCCOCCNC(=O)CCC(CCC(=O)NCCOCCOCCNS(=O)(=O)c3cccc([C@@H]4CN(C)Cc5c(Cl)cc(Cl)cc54)c3)(CCC(=O)NCCOCCOCCNS(=O)(=O)c3cccc([C@@H]4CN(C)Cc5c(Cl)cc(Cl)cc54)c3)NC(=O)CCCC(=O)O)c2)C1 | 50.1 |
| CN(C)[C@H]1Cc2c(Cl)cc(Cl)cc2[C@@H]1Oc1ccc(S(=O)(=O)NCCOCCOCCNC(=O)COCC(=O)NCCOCCOCCNS(=O)(=O)c2ccc(O[C@H]3c4cc(Cl)cc(Cl)c4C[C@@H]3N(C)C)cc2)cc1 | 7.94 |
| CCN(CCOCCOCCNC(=O)NCCCN(CCCNC(=O)NCCOCCOCCN(CC)S(=O)(=O)c1cccc([C@@H]2CN(C)Cc3c(Cl)cc(Cl)cc32)c1)CCCNC(=O)NCCOCCOCCN(CC)S(=O)(=O)c1cccc([C@@H]2CN(C)Cc3c(Cl)cc(Cl)cc32)c1)S(=O)(=O)c1cccc([C@@H]2CN(C)Cc3c(Cl)cc(Cl)cc32)c1 | 1000 |
| CN(C)[C@H]1Cc2c(Cl)cc(Cl)cc2[C@@H]1Oc1ccc(S(=O)(=O)NCCOCCOCCNC(=O)CCC(=O)NCCOCCOCCNS(=O)(=O)c2ccc(O[C@H]3c4cc(Cl)cc(Cl)c4C[C@@H]3N(C)C)cc2)cc1 | 3.98 |
| CN(C)CC(=O)NC(CCC(=O)NCCOCCOCCNS(=O)(=O)c1cccc([C@@H]2CN(C)Cc3c(Cl)cc(Cl)cc32)c1)(CCC(=O)NCCOCCOCCNS(=O)(=O)c1cccc([C@@H]2CN(C)Cc3c(Cl)cc(Cl)cc32)c1)CCC(=O)NCCOCCOCCNS(=O)(=O)c1cccc([C@@H]2CN(C)Cc3c(Cl)cc(Cl)cc32)c1 | 79.4 |
| CN(C)[C@H]1Cc2c(Cl)cc(Cl)cc2[C@@H]1Oc1ccc(S(=O)(=O)NCCOCCOCCNC(=O)Nc2ccc(NC(=O)NCCOCCOCCNS(=O)(=O)c3ccc(O[C@H]4c5cc(Cl)cc(Cl)c5C[C@@H]4N(C)C)cc3)cc2)cc1 | < 10000 |
| CN(C)[C@H]1Cc2ccc(F)cc2[C@@H]1Oc1ccc(S(=O)(=O)NCCOCCOCCNC(=O)NCCCCNC(=O)NCCOCCOCCNS(=O)(=O)c2ccc(O[C@H]3c4cc(F)ccc4C[C@@H]3N(C)C)cc2)cc1 | < 10000 |
| CN1Cc2c(Cl)cc(Cl)cc2[C@H](c2cccc(S(=O)(=O)NCCOCCOCCNC(=O)CCC(CCC(=O)NCCOCCOCCNS(=O)(=O)c3cccc([C@@H]4CN(C)Cc5c(Cl)cc(Cl)cc54)c3)(CCC(=O)NCCOCCOCCNS(=O)(=O)c3cccc([C@@H]4CN(C)Cc5c(Cl)cc(Cl)cc54)c3)NC(=O)N(C)C)c2)C1 | 2510 |
| CC(C)CCC[C@@H](C)[C@H]1CC[C@H]2[C@@H]3CC=C4C[C@@H](OC(=O)NCCOCCOCCOCCNS(=O)(=O)c5cccc([C@@H]6CN(C)Cc7c(Cl)cc(Cl)cc76)c5)CC[C@]4(C)[C@H]3CC[C@]12C | < 10000 |
| CN1Cc2c(Cl)cc(Cl)cc2[C@H](c2cccc(S(=O)(=O)NCCOCCOCCNC(=O)CCC(CCC(=O)NCCOCCOCCNS(=O)(=O)c3cccc([C@@H]4CN(C)Cc5c(Cl)cc(Cl)cc54)c3)(CCC(=O)NCCOCCOCCNS(=O)(=O)c3cccc([C@@H]4CN(C)Cc5c(Cl)cc(Cl)cc54)c3)NC(=O)NCCN3CCOCC3)c2)C1 | 63.1 |
| N[C@@H]1CCCN([C@H]2Cc3c(Cl)cc(Cl)cc3[C@@H]2Oc2ccc(S(=O)(=O)NCCOCCOCCNC(=O)NCCCCNC(=O)NCCOCCOCCNS(=O)(=O)c3ccc(O[C@H]4c5cc(Cl)cc(Cl)c5C[C@@H]4N4CCC[C@@H](N)C4)cc3)cc2)C1 | 39.8 |
| CN(C)[C@H]1Cc2c(Cl)cc(Cl)cc2[C@@H]1Oc1ccc(S(=O)(=O)NCCOCCOCCNC(=O)[C@H](O)[C@@H](O)C(=O)NCCOCCOCCNS(=O)(=O)c2ccc(O[C@H]3c4cc(Cl)cc(Cl)c4C[C@@H]3N(C)C)cc2)cc1 | 2.51 |
| CN1Cc2c(Cl)cc(Cl)cc2[C@H](c2cccc(S(=O)(=O)NCCOCCOCCNC(=O)NCCCC(N)(CCCNC(=O)NCCOCCOCCNS(=O)(=O)c3cccc([C@@H]4CN(C)Cc5c(Cl)cc(Cl)cc54)c3)CCCNC(=O)NCCOCCOCCNS(=O)(=O)c3cccc([C@@H]4CN(C)Cc5c(Cl)cc(Cl)cc54)c3)c2)C1 | 100 |
| CN1Cc2c(Cl)cc(Cl)cc2[C@H](c2cccc(S(=O)(=O)N(CCO)CCOCCOCCNC(=O)NCCCN(CCCNC(=O)NCCOCCOCCN(CCO)S(=O)(=O)c3cccc([C@@H]4CN(C)Cc5c(Cl)cc(Cl)cc54)c3)CCCNC(=O)NCCOCCOCCN(CCO)S(=O)(=O)c3cccc([C@@H]4CN(C)Cc5c(Cl)cc(Cl)cc54)c3)c2)C1 | 15.8 |
| CN(C)[C@H]1Cc2c(Cl)cc(Cl)cc2[C@@H]1Oc1ccc(S(=O)(=O)NCCOCCOCCNC(=O)C(C)(C)C(=O)NCCOCCOCCNS(=O)(=O)c2ccc(O[C@H]3c4cc(Cl)cc(Cl)c4C[C@@H]3N(C)C)cc2)cc1 | 5.01 |
| CN1Cc2c(Cl)cc(Cl)cc2[C@H](c2cccc(S(=O)(=O)NCCOCCOCCNC(=O)CCC(CCC(=O)NCCOCCOCCNS(=O)(=O)c3cccc([C@@H]4CN(C)Cc5c(Cl)cc(Cl)cc54)c3)(CCC(=O)NCCOCCOCCNS(=O)(=O)c3cccc([C@@H]4CN(C)Cc5c(Cl)cc(Cl)cc54)c3)NC(=O)COCC(=O)O)c2)C1 | 25.1 |
| O=C(NCCCCNC(=O)NCCOCCOCCNC(=O)Nc1cccc(O[C@H]2c3ccccc3C[C@@H]2N2CCCCC2)c1)NCCOCCOCCNC(=O)Nc1cccc(O[C@H]2c3ccccc3C[C@@H]2N2CCCCC2)c1 | < 10000 |
| CN1Cc2c(Cl)cc(Cl)cc2[C@H](c2cccc(S(=O)(=O)NCCOCCOCCNC(=O)CCC(CCC(=O)NCCOCCOCCNS(=O)(=O)c3cccc([C@@H]4CN(C)Cc5c(Cl)cc(Cl)cc54)c3)(CCC(=O)NCCOCCOCCNS(=O)(=O)c3cccc([C@H]4c5cc(Cl)cc(Cl)c5CCN4C)c3)NC(=O)N[C@@H](CC(=O)O)C(=O)O)c2)C1 | 25.1 |
| CN1Cc2c(Cl)cc(Cl)cc2[C@H](c2cccc(S(=O)(=O)NCCOCCOCCNC(=O)CCC(CCC(=O)NCCOCCOCCNS(=O)(=O)c3cccc([C@@H]4CN(C)Cc5c(Cl)cc(Cl)cc54)c3)(CCC(=O)NCCOCCOCCNS(=O)(=O)c3cccc([C@@H]4CCN(C)c5c(Cl)cc(Cl)cc54)c3)NC(=O)[C@H]3CCCC[C@@H]3C(=O)O)c2)C1 | 126 |
| CN1Cc2c(Cl)cc(Cl)cc2C(c2cccc(S(=O)(=O)NCCOCCOCCNC(=O)CCC(CCC(=O)NCCOCCOCCNS(=O)(=O)c3cccc([C@@H]4CN(C)Cc5c(Cl)cc(Cl)cc54)c3)(CCC(=O)NCCOCCOCCNS(=O)(=O)c3cccc([C@@H]4CN(C)Cc5c(Cl)cc(Cl)cc54)c3)N(C)C)c2)C1 (stereo not given in full) | 67.6 |
